Experimental data taken from paper PMC7098856 (British Journal of Clinical Pharmacology, 2020).
“And” between values parts separate entries of the source, which are not always exact repeats. Identical values can stand only once. Like-named read-outs stand apart in the source and are kept apart here.

Legend:
[1] = Phase 1 dose escalation study; cited from earlier work
[2] = cited from earlier work
enzymes or transporters = details: at therapeutic exposures; cited from earlier work
[3] = cited from earlier work; remark: listed apart in the source
[4] = assay type: in vivo, patients with advanced solid tumours; details: for CL/F: geometric mean (CV%)
[5] = tested on: breast cancer resistance protein; details: in vitro; cited from earlier work
[6] = cited from earlier work; remark: listed apart in the source
Safety and tolerability [7] = assay type: in vivo, patients with advanced solid tumours; details: whole Arm B
P‐glycoprotein (P‐gp) = details: in vitro; cited from earlier work
[8] = population PK, cited from earlier work
Safety and tolerability [9] = assay type: in vivo, patients with advanced solid tumours; details: both arms; talazoparib alone or together with itraconazole or rifampicin
[10] = assay type: in vivo, patients with advanced solid tumours; details: for CL/F / variability of talazoparib Cmax: Arm B; for CL/F: geometric mean (CV%)
[11] = coadministration of itraconazole
[12] = talazoparib + itraconazole vs talazoparib alone
[13] = based on urinary excretion data, single 1 mg oral dose
[14] = talazoparib + rifampicin vs talazoparib alone
[15] = talazoparib + rifampicin vs talazoparib alone, listed as talazoparib

SMILES: Cn1ncnc1[C@H]1c2n[nH]c(=O)c3cc(F)cc(c23)N[C@@H]1c1ccc(F)cc1 [Talazoparib, talazoparib]
- maximum tolerated dose (MTD) [1]: 1 mg once daily (QD)
- effect of food on talazoparib AUCinf [2]: no effect
- effect of food on talazoparib Cmax [2]: reduced
- induction or inhibition of enzymes or transporters (enzymes or transporters): does not markedly induce or inhibit
- patients who permanently discontinued treatment due to a haematological AE [3]: 1.4%
- progression-free survival vs physician's choice of chemotherapy [3]: statistically significant and clinically meaningful improvement
- patients with Grade 3–4 AEs (primarily haematological) ([3]; patients on talazoparib): 55%
- AUClast, adjusted geometric mean ([4]; Arm A talazoparib alone (reference), mixed effects model): 98,532.3 h pg/mL
- CL/F ([4]; Arm A, single oral 0.5 mg talazoparib + itraconazole): 12 3.3 (36.0) L/h
- Tmax ([4]; Arm A, single oral 0.5 mg talazoparib + itraconazole, median (range)): 15 1.0 (0.5–4.0) h
- CL/F ([4]; Arm A, single oral 0.5 mg talazoparib alone): 18 4.6 (42.0) L/h
- increase in talazoparib AUCinf relative to talazoparib alone [4, 11]: ~ 56% and 56%
- increase in talazoparib Cmax relative to talazoparib alone [4, 11]: ~ 40% and 40%
- AUC(0-inf) ([4]; human, plasma, oral, 0.5 mg): 110 ng·h/mL
- Cmax ([4]; human, plasma, oral, 0.5 mg): 2.09 ng/mL
- Cmax ([4]; human, plasma, po, 0.5 mg): 2.09 ng/mL
- Vd/F ([4]; human, plasma, po, 0.5 mg): 645 L
- half-life ([4]; human, plasma, po, 0.5 mg): 101 h
- AUCinf geometric mean ratio (test/reference), % (90% CI) [4, 12]: 156.2 (137.6, 177.4) %
- AUClast geometric mean ratio (test/reference), % (90% CI) [4, 12]: 150.7 (136.5, 166.4) %
- Cmax geometric mean ratio (test/reference), % (90% CI) [4, 12]: 139.9 (113.3, 172.9) %
- substrate for breast cancer resistance protein [5]: substrate
- absolute bioavailability [6, 13]: at least 54.6%
- fraction absorbed [6, 13]: at least 68.7%
- hepatic metabolism [6]: minimal
- major elimination pathway [6]: renal excretion of unchanged talazoparib
- patients who discontinued treatment due to AEs (Safety and tolerability [7]): 11.8%
- patients who discontinued treatment due to study-drug related AE (Safety and tolerability [7]): 5.9%
- substrate for P-gp (P‐glycoprotein (P‐gp)): substrate
- increase in relative bioavailability of talazoparib by potent P-gp inhibitors ([8]; data pooled from multiple clinical trials): 45%
- increase in relative bioavailability of talazoparib by potent P-gp inhibitors ([8]; first-in-human, Phase 2 and 3 studies): 44.7%
- overall tolerability (Safety and tolerability [9]): generally well tolerated
- CL/F ([10]; single oral 1.0 mg talazoparib + rifampicin): 12 5.2 (36.0) L/h
- CL/F ([10]; single oral 1.0 mg talazoparib alone): 17 4.8 (34.0) L/h
- variability of talazoparib Cmax ([10]; talazoparib alone): 53%
- variability of talazoparib Cmax ([10]; with rifampicin administration): 71%
- increase in talazoparib Cmax relative to talazoparib alone ([10]; coadministration of rifampicin): approximately 37%
- Cmax ([10]; human, plasma, oral, 1 mg): 6.01 ng/mL
- Cmax ([10]; human, plasma, po, 1 mg): 6.01 ng/mL
- Tmax ([10]; human, plasma, po, 1 mg): 1 h
- Vd/F ([10]; human, plasma, po, 1 mg): 624 L
- half-life ([10]; human, plasma, po, 1 mg): 92.1 h
- AUCinf geometric mean ratio (test/reference), % (90% CI) [10, 14]: 102.0 (94.0, 110.7) %
- AUClast geometric mean ratio (test/reference), % (90% CI) [10, 14]: 105.4 (98.0, 113.2) %
- Cmax geometric mean ratio (test/reference), % (90% CI) [10, 14]: 136.6 (103.2, 180.9) %
- AUCinf geometric mean ratio (test/reference), % (90% CI) [10, 15]: 102.0%
- Cmax geometric mean ratio (test/reference), % (90% CI) [10, 15]: 136.6%
